Source: BindingDB's records for patent USRE47740 (Syntrix Biosystems Inc., 2019)

Biological target: T1, C-X-C chemokine receptor type 2 (Homo sapiens, UniProt P25025)
T1 sequence (P25025 whole entry): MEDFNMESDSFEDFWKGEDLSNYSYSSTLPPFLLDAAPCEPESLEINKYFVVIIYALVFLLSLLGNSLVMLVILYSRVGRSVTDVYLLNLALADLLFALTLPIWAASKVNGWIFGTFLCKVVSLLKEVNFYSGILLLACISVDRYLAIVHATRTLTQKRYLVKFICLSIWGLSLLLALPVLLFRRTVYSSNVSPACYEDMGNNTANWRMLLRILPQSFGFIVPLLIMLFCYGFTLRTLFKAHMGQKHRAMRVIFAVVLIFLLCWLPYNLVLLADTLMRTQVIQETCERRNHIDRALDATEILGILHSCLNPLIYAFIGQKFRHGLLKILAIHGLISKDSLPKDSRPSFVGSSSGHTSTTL
Assay: In Vitro Inhibition of Intracellular Calcium Release
Method: Briefly, human neutrophils were suspended in HBSS− (without Ca2+ and Mg2+) containing 10 mM HEPES and FLIPR Calcium 3 dye (3.1×10^7 cells in total volume 1.7 mL). Cells were aliquoted (200 μL of the cell suspension per tube, 8 tubes total) and 2 μL of compound 9 (with appropriate dilutions) were added to each of 6 tubes. The tested concentrations of compound 9 were 156 nM, 312 nM, 625 nM, 1250 nM, 2500 nM and 5000 nM. As controls, 2 μL of DMSO (1% final concentration) were added to 2 other tubes. Cells were incubated for 30 min at 37° C. […] The cell suspension was aliquoted into a 96-well Reading Plate (Corning) in a volume of 90 μL (10^5 cells/well). […] After 15 sec of reading the basal level of fluorescence by FlexStation II, 10 μL of GROα or HBSS− were automatically transferred from the Compound Plate into the Reading Plate (final concentration of GROα was 25 nM). Changes in fluorescence were monitored (λex=485 nm, λem=525 nm) every 5 s for 240 to 500 s at room temperature.The maximum change in fluorescence, expressed in arbitrary units over baseline (Max-Min), was used to determine the GROα response. The effect of each compound on the GROα response was normalized and expressed as a percent of the DMSO control, which was designated as 100% response. […]

- IC50: 1500 nM
SMILES: CC1(C)OB(c2ccccc2CNc2ccc(C(=O)Nc3ccc(F)cc3)cn2)OC1(C)C [USRE47740, Compound 7]
